From article PMC12676205, “New Se‐Compounds With Antileishmanial, Antitumor, and Carbonic Anhydrase Inhibitory Properties” (Archiv Der Pharmazie, 2025)
Like-named read-outs stand apart in the source and are kept apart here.

What was measured:
Ovarian subpanel [1] = test: NCI-60 five-dose assay, ovarian subpanel; type: cell-based; conditions: Homo sapiens, 48 h; for GI50: read-out: Mean GI50 Ovarian; for LC50 (50% lethal concentration): read-out: Mean LC50 Ovarian
Description: (§1) All the compounds were selected for further testing since they fulfilled the set NCI one‐dose screening parameters for threshold inhibition. They were tested at five different concentrations (0.01, 0.1, 1, 10, and 100 μM) for 48 h against the same cell line panel and the dose–response curves along with three response parameters (50% growth inhibitory concentration [GI50], the 50% lethal concentration [LC50], and the total growth inhibition [TGI]) were calculated for every cancer cell line. The full reported data and corresponding graphs are compiled in Supporting Information S1. Average values of GI50, TGI, and LC50 values of all the reported selenoesters in all the subpanels are represented in Figure 4.
(§2) All the reported selenoesters (1–6) were submitted to the DTP of NCI. First, they were screened at a single dose (10^−5 M) against a panel of 60 cancer cell lines derived from different tumor types following the methodology available (https://dtp.cancer.gov/discovery_development/nci-60/methodology.htm). As all the compounds satisfied the threshold inhibition criteria established, they were further assessed at five concentrations (0.01, 0.1, 1, 10, and 100 µM) against the same cell panel to obtain their corresponding dose–response curves and three antitumor parameters (GI50, TGI, and LC50) by regression. GraphPad Prism 7.0 Software was used to represent the corresponding graphs.

Renal subpanel = test: NCI-60 five-dose assay, renal subpanel; type: cell-based; conditions: Homo sapiens, 48 h; for GI50: read-out: Mean GI50 Renal; for LC50: read-out: Mean LC50 Renal
Description: as §1, §2

[2] = tested on: NSCL (non‐small‐cell lung cancer) subpanel; test: NCI-60 five-dose assay, NSCL subpanel; type: cell-based; conditions: Homo sapiens, 48 h; for GI50: read-out: Mean GI50 NSCL; for LC50 (50% lethal concentration): read-out: Mean LC50 NSCL
Description: as §1, §2

OVCAR‐5 = test: NCI-60 one-dose screen, OVCAR-5; type: cell-based, human; conditions: 10 µM, 48 h
Description: (§3) To explore the potential antiproliferative properties of the newly synthesized derivatives, they were submitted to the National Cancer Institute's (NCI) Developmental Therapeutics Program (DTP) for screening at 10 μM in a panel of approximately 60 human cancer cell lines from different cancer types. The results are reported as the growth percentage (GP), which is the growth of the treated cells with each compound for 48 h compared to the untreated controls (Figure 2). […] The initial screening results are summarized in Figure 2, and the mean GP values of each subpanel are depicted in Figure 3. The full reports are compiled in the Supplementary Section.
as §2

Breast subpanel = test: NCI-60 one-dose screen, breast subpanel; type: cell-based, human; conditions: 10 µM, 48 h
Description: as §3, §2

[3] = tested on: NCI‐60 human cancer cell lines; test: NCI-60 one-dose screen, whole panel; type: cell-based; conditions: 10 µM, 48 h, whole NCI-60 panel
Description: as §3, §2

hCA IX = molecular target: T1, hCA IX (Homo sapiens, UniProt Q16790); test: biochemical; conditions: stopped flow technique, mean from three assays
T1 construct: made in house
Description: An Applied Photophysics stopped‐flow instrument was used to assay the CA‐catalyzed CO2 hydration activity [52]. […] The uncatalyzed rates were determined in the same manner and subtracted from the total observed rates. Stock solutions of the inhibitor (0.1 mM) were prepared in distilled–deionized water, and dilutions up to 0.01 nM were done thereafter with the assay buffer. Inhibitor and enzyme solutions were preincubated together for 15 min at room temperature before the assay, to allow for the formation of the E–I complex. The inhibition constants were obtained by Nonlinear least‐squares methods using PRISM 3 and the Cheng‐Prusoff equation as reported earlier and represent the mean from at least three different determinations. All CA isoforms were recombinant proteins obtained in‐house, as reported earlier [54, 55, 56].

Ovarian subpanel [4] = test: NCI-60 one-dose screen, ovarian subpanel; type: cell-based, human; conditions: 10 µM, 48 h
Description: as §3, §2

[5] = tested on: L. infantum promastigotes; test: Leishmanicidal activity against promastigotes (MTT), L. infantum; type: cell-based, Leishmania infantum
Description: (§4) The synthesized compounds were tested for their antileishmanial activity against promastigotes of L. major and L. infantum at four concentrations (1, 10, 50, and 100 µM) for 48 h using the 3‐(4,5‐dimethylthiazol‐2‐yl)‐2,5‐diphenyltetrazolium bromide (MTT) assay. In this evaluation, the activity was expressed in IC50 (concentration inhibiting the parasite growth by 50%). […] The CC50 was defined as the concentration of selenoesters that led to a reduction in the viability of the macrophages, such that only 50% of the cells survived when compared to the control group. This cell line, derived from the blood of a human with acute monocytic leukemia, was chosen as it has been widely reported that it resembles tissue macrophages to various extents as well as supports the infection by numerous Leishmania promastigotes. The selectivity indexes (SIs) were calculated as the ratio between toxicity on macrophages (THP‐1 cells)/antileishmanial activity. The data for standard control drugs (miltefosine and paromomycin) are included for comparison purposes.
The promastigotes of L. major (clone VI, MHOM/IL/80/Friendlin) and L. infantum (BCN‐150) were grown at 26°C under continuous shaking in M199 1× medium (Sigma, USA). This media was supplemented with 10% of heat‐inactivated fetal bovine serum (FBS) (Gibco, USA), 0.0005% (w/v) hemin, 0.1 mM adenine, 25 mM HEPES (pH 7.2), 0.0001% (w/v) biotin, and 100 UI/mL penicillin and […] streptomycin (Gibco, USA).
The antileishmanial activity of the reported selenoesters was determined using the MTT assay as previously described during the logarithmic growth phase of the tested promastigotes of L. major and L. infantum. Briefly, the Leishmania parasites were seeded into 96‐well flat‐bottom plates (3 × 10^5 parasites/100 µL) and treated with four different concentrations ranging between 1 and 100 µM of each selenoester at 26°C for 48 h. Afterwards, 20 µL of MTT (5 mg/mL in PBS) was added to each well and incubated for 4 h under the same conditions. Then, 80 µL/well of DMSO was added to dissolve the resultant formazan crystals. The absorbances were determined on a Multiskan EX photometric plate reader for microplates at 540 nm. Three independent experiments performed in triplicate were carried out for each compound, and OriginPro 8.5.1 Software was used to calculate the IC50 values by fitting the data to a dose–inhibition sigmoid curve.

Prostate subpanel [6] = test: NCI-60 five-dose assay, prostate subpanel; type: cell-based, human; conditions: 48 h; for GI50 / CC50: Homo sapiens; for GI50: read-out: Mean GI50 Prostate; for CC50: read-out: Mean LC50 Prostate
Description: as §1, §2

Prostate subpanel [7] = test: NCI-60 one-dose screen, prostate subpanel; type: cell-based, human; conditions: 10 µM, 48 h
Description: as §3, §2

[8] = tested on: HCC‐2998‐resistant colon cancer cells; test: NCI-60 one-dose screen, HCC-2998; type: cell-based, human; conditions: 10 µM, 48 h
Description: as §3, §2

[9] = THP-1 cytotoxicity (MTT, PMA-differentiated macrophages); type: cell-based, human; conditions: human, THP-1 cells differentiated into macrophages with PMA, mean ± SD
Description: as §4
THP‐1 cells were seeded at a concentration of 8 × 10^4 cells per well in 96‐well plates and incubated with phorbol 12‐myristate 13‐acetate (PMA) (50 ng/mL) for 72 h (37°C and 5% CO2) to differentiate them into macrophages. After that, the culture medium was removed and the cells were treated with the reported selenoesters at different increasing concentrations ranging from 1 to 200 µM for 48 h at 37°C and 5% of CO2. Macrophages treated with DMSO (1%) were used as controls, and the compounds were dissolved in DMSO at a stock concentration of 10^−2 M. Afterward, the MTT assay was performed. Data were obtained from three independent experiments performed in triplicate. The absorbance was measured at 550 nm using a MultiskanEX photometric plate reader for microplates. The CC50 values were calculated using OriginPro 8.5.1. software by nonlinear curve fitting. SIs were calculated as the ratio of the CC50 values determined for the macrophages and the IC50 values obtained in each Leishmania promastigote. GraphPad Prism 7.0 Software was used to obtain the corresponding graphs.

[10] = Leishmania infantum, 48 h, mean ± SD, read-out: L. infantum IC50
[11] = 48 h, mean ± SD, read-out: L. infantum IC50
[12] = read-out: L. infantum IC50, 48 h, mean ± SD

In the case of `N#Cc1ccc(NC(=O)C[Se]C(=O)c2ccccc2)cc1C(F)(F)F` [Compound 1, Se‐(2‐((4‐cyano‐3‐(trifluoromethyl)phenyl)amino)‐2‐oxoethyl)benzoselenoate], the GI50 (Ovarian subpanel [1]) is reported as 1.77 µM, the LC50 (50% lethal concentration) (Ovarian subpanel [1]) is reported as 6.4 µM and the GI50 (Renal subpanel) is reported as 1.57 µM. The LC50 (Renal subpanel) was 6.11 µM, the GI50 [2] was 1.54 µM and the LC50 (50% lethal concentration) [2] was 5.61 µM. The “behaviour in OVCAR‐5” value (OVCAR‐5) was “cytotoxic activity”, the “average growth cell value, Breast” value (Breast subpanel) was -86.92% and the “mean GP (growth percentage)” value [3] was −94.16%. The Ki (hCA IX) was 57.2 µM, the “average growth cell value, Ovarian” value (Ovarian subpanel [4]) was -92.77% and the IC50 [5, 10] was 29.2 ± 2.65 µM. The GI50 (Prostate subpanel [6]) was 1.54 µM, the CC50 (Prostate subpanel [6]) was 5.91 µM and the “average growth cell value, Prostate” value (Prostate subpanel [7]) was -95.47%. The “behaviour in HCC‐2998” value [8] was “susceptible”.

`O=C(C[Se]C(=O)c1ccccc1)Nc1ccc([N+](=O)[O-])c(C(F)(F)F)c1` [Compound 2, Se‐(2‐((4‐nitro‐3‐(trifluoromethyl)phenyl)amino)‐2‐oxoethyl)benzoselenoate] gave a GI50 (Ovarian subpanel [1]) of 1.57 µM, an LC50 (50% lethal concentration) (Ovarian subpanel [1]) of 5.83 µM and a GI50 (Renal subpanel) of 1.38 µM. For the same compound, the LC50 (Renal subpanel) was 5.2 µM, the GI50 [2] was 1.41 µM and the LC50 (50% lethal concentration) [2] was 5.36 µM. The “behaviour in OVCAR‐5” value (OVCAR‐5) was “cytotoxic activity”, the “average growth cell value, Breast” value (Breast subpanel) was -83.18% and the “mean GP (growth percentage)” value [3] was −91.96%. The Ki (hCA IX) was 76.3 µM, the “average growth cell value, Ovarian” value (Ovarian subpanel [4]) was -92.98% and the IC50 [5, 10] was 29.4 ± 2.1 µM. For the same compound, the GI50 (Prostate subpanel [6]) was 1.44 µM, the CC50 (Prostate subpanel [6]) was 5.66 µM and the “average growth cell value, Prostate” value (Prostate subpanel [7]) was -94.40%. For the same compound, the “behaviour in HCC‐2998” value [8] was “susceptible”.

In the case of `O=C(C[Se]C(=O)c1ccccc1)Nc1cccc(OC(F)(F)F)c1` [Compound 3, Se‐(2‐oxo‐2‐((3‐(trifluoromethoxy)phenyl)amino)ethyl)benzoselenoate], the CC50 at 48 h [9] is reported as ≥ 200 µM, the GI50 (Ovarian subpanel [1]) is reported as 2.45 µM and the LC50 (50% lethal concentration) (Ovarian subpanel [1]) is reported as 18.2 µM. The GI50 (Renal subpanel) was 2.33 µM, the LC50 (Renal subpanel) was 15.4 µM and the GI50 [2] was 2.3 µM. For the same compound, the LC50 (50% lethal concentration) [2] was 13.2 µM, the “behaviour in OVCAR‐5” value (OVCAR‐5) was “cytostatic behavior” and the “average growth cell value, Breast” value (Breast subpanel) was -45.08%. The “mean GP (growth percentage)” value [3] was −43.99%, the Ki (hCA IX) was 80.2 µM and the “average growth cell value, Ovarian” value (Ovarian subpanel [4]) was -50.78%. The IC50 [5, 11] was 6.59 ± 3.73 µM, the IC50 [5, 10] was 6 to 10 µM and the IC50 [5, 12] was < 10 µM. For the same compound, the GI50 (Prostate subpanel [6]) was 2.16 µM, the CC50 (Prostate subpanel [6]) was 12.6 µM and the “average growth cell value, Prostate” value (Prostate subpanel [7]) was -48.28%.

`O=C(C[Se]C(=O)c1ccco1)Nc1ccc([N+](=O)[O-])c(C(F)(F)F)c1` [Compound 5, Se‐(2‐((4‐nitro‐3‐(trifluoromethyl)phenyl)amino)‐2‐oxoethyl)furan‐2‐carboselenoate] gave a CC50 at 48 h [9] of 108 ± 5.53 µM, a GI50 (Ovarian subpanel [1]) of 2.28 µM and a GI50 (Renal subpanel) of 2.2 µM. The GI50 [2] was 1.9 µM, the “behaviour in OVCAR‐5” value (OVCAR‐5) was “cytotoxic activity” and the “average growth cell value, Breast” value (Breast subpanel) was -28.95%. The Ki (hCA IX) was 21.1 µM, the “average growth cell value, Ovarian” value (Ovarian subpanel [4]) was -38.57% and the IC50 [5, 10] was 32.9 ± 8.25 µM. For the same compound, the GI50 (Prostate subpanel [6]) was 1.85 µM, the CC50 (Prostate subpanel [6]) was 54.4 µM and the “average growth cell value, Prostate” value (Prostate subpanel [7]) was -27.89%. For the same compound, the “behaviour in HCC‐2998” value [8] was “susceptible”.

Compound `O=C(C[Se]C(=O)c1ccco1)Nc1cccc(OC(F)(F)F)c1` [Compound 6, Se‐(2‐oxo‐2‐((3‐(trifluoromethoxy)phenyl)amino)ethyl)furan‐2‐carboselenoate] has a CC50 at 48 h [9] of 38.7 ± 6.71 µM, a GI50 (Ovarian subpanel [1]) of 8.37 µM and a GI50 (Renal subpanel) of 5.62 µM. The GI50 [2] was 3.64 µM, the “behaviour in OVCAR‐5” value (OVCAR‐5) was “cytostatic behavior” and the “average growth cell value, Breast” value (Breast subpanel) was -10.87%. For the same compound, the Ki (hCA IX) was 35.9 µM, the “average growth cell value, Ovarian” value (Ovarian subpanel [4]) was 5.95% and the IC50 [5, 11] was 5.99 ± 2.33 µM. For the same compound, the IC50 [5, 10] was 6 to 10 µM, the IC50 [5, 12] was < 10 µM and the GI50 (Prostate subpanel [6]) was 5.38 µM. The CC50 (Prostate subpanel [6]) was 100 µM, the “cytotoxic activity (LC50) in the prostate cancer subpanel” value (Prostate subpanel [6]; five-dose) was “devoid of activity” and the “average growth cell value, Prostate” value (Prostate subpanel [7]) was -15.23%.
